Measured values published in the NIST ThermoML archive (doi:10.1007/s10765-005-5570-x).
Values joined by “and” are separate entries in the source; they are usually repeats but may differ in a detail not shown here. Equal entries are not always repeated.

Key:
[1] = Liquid
[2] = xn = mol fraction of the nth substance listed; details: 101.33 kPa, Liquid, x2 = 0

ClCCCl [1,2-dichloroethane]
[1]
Details	mass density [kg/m3]
288.15 K, 101.33 kPa	1260.13
298.15 K, 101.33 kPa	1246.59
298.15 K, 200 kPa	1245.68
298.15 K, 500 kPa	1246.02
298.15 K, 1100 kPa	1246.54
298.15 K, 2000 kPa	1247.41
298.15 K, 3100 kPa	1248.51
298.15 K, 4100 kPa	1249.53
298.15 K, 5100 kPa	1250.32
298.15 K, 6100 kPa	1251.22
298.15 K, 7100 kPa	1252.27
298.15 K, 8000 kPa	1253.07
298.15 K, 8900 kPa	1254
298.15 K, 10100 kPa	1255.18
298.15 K, 12000 kPa	1256.96
298.15 K, 13900 kPa	1258.84
298.15 K, 15700 kPa	1260.48
298.15 K, 17700 kPa	1262.37
298.15 K, 19700 kPa	1264.29
308.15 K, 101.33 kPa	1231.27

ClCCBr [1-bromo-2-chloroethane]
[1]
Details	mass density [kg/m3]
288.15 K, 101.33 kPa	1744.36
298.15 K, 101.33 kPa	1727.88
298.15 K, 200 kPa	1726.08
298.15 K, 500 kPa	1726.48
298.15 K, 900 kPa	1726.94
298.15 K, 2000 kPa	1728.17
298.15 K, 2900 kPa	1729.14
298.15 K, 4100 kPa	1730.57
298.15 K, 4800 kPa	1731.35
298.15 K, 6000 kPa	1732.77
298.15 K, 6800 kPa	1733.74
298.15 K, 8000 kPa	1735.1
298.15 K, 8700 kPa	1736.13
298.15 K, 9600 kPa	1737.17
298.15 K, 11700 kPa	1739.6
298.15 K, 13900 kPa	1742.49
298.15 K, 15600 kPa	1744.52
298.15 K, 17600 kPa	1747.12
298.15 K, 19400 kPa	1749.48
308.15 K, 101.33 kPa	1708.86

ClCBr [bromochloromethane]
[1]
Details	mass density [kg/m3]
288.15 K, 101.33 kPa	1945.94
298.15 K, 101.33 kPa	1924.88
298.15 K, 200 kPa	1923.54
298.15 K, 500 kPa	1923.88
298.15 K, 1000 kPa	1924.64
298.15 K, 2100 kPa	1926.24
298.15 K, 2900 kPa	1927.62
298.15 K, 3800 kPa	1928.77
298.15 K, 4900 kPa	1930.51
298.15 K, 5900 kPa	1932.03
298.15 K, 7000 kPa	1933.43
298.15 K, 8000 kPa	1934.88
298.15 K, 8800 kPa	1936.36
298.15 K, 9800 kPa	1937.83
298.15 K, 11800 kPa	1940.79
298.15 K, 13900 kPa	1944.25
298.15 K, 15700 kPa	1947.01
298.15 K, 17800 kPa	1950.26
298.15 K, 19600 kPa	1953.16
308.15 K, 101.33 kPa	1900.86

BrCBr [dibromomethane]
[1]
Details	mass density [kg/m3]
288.15 K, 101.33 kPa	2501.88
298.15 K, 101.33 kPa	2478.37
298.15 K, 200 kPa	2477.56
298.15 K, 300 kPa	2477.92
298.15 K, 600 kPa	2478.35
298.15 K, 1000 kPa	2478.9
298.15 K, 2100 kPa	2480.41
298.15 K, 3000 kPa	2481.88
298.15 K, 4100 kPa	2483.5
298.15 K, 5000 kPa	2484.84
298.15 K, 5900 kPa	2486.26
298.15 K, 6900 kPa	2487.82
298.15 K, 8000 kPa	2489.54
298.15 K, 8800 kPa	2490.92
298.15 K, 9800 kPa	2492.58
298.15 K, 11800 kPa	2494.98
298.15 K, 13700 kPa	2498.59
298.15 K, 15800 kPa	2502.33
298.15 K, 15900 kPa	2502.49
298.15 K, 17700 kPa	2505.74
298.15 K, 19200 kPa	2508.69
298.15 K, 19300 kPa	2508.84
308.15 K, 101.33 kPa	2451.74

CCOC(C)=O [ethyl acetate]
[1]
Details	mass density
288.15 K, 101.33 kPa	906.71 kg/m3
298.15 K, 101.33 kPa	894.97 kg/m3
298.15 K, 200 kPa	894.2 kg/m3
298.15 K, 600 kPa	894.65 kg/m3
298.15 K, 1100 kPa	895.18 kg/m3
298.15 K, 2100 kPa	896.14 kg/m3
298.15 K, 2900 kPa	897.1 kg/m3
298.15 K, 4000 kPa	898.2 kg/m3
298.15 K, 5100 kPa	899.22 kg/m3
298.15 K, 6000 kPa	900.19 kg/m3
298.15 K, 7000 kPa	901.11 kg/m3
298.15 K, 8000 kPa	902.12 kg/m3
298.15 K, 8900 kPa	902.88 kg/m3
298.15 K, 9900 kPa	903.88 kg/m3
298.15 K, 11700 kPa	905.54 kg/m3
298.15 K, 13800 kPa	907.54 kg/m3
298.15 K, 16000 kPa	909.45 kg/m3
298.15 K, 17600 kPa	910.84 kg/m3
298.15 K, 19500 kPa	912.59 kg/m3
308.15 K, 101.33 kPa	882.27 kg/m3 and 881.87 kg/m3

CCOC(C)=O [ethyl acetate] + BrCBr
[2]
Details	mass density [kg/m3]
288.15 K	906.71
298.15 K	894.97
308.15 K	882.27

CCOC(C)=O [ethyl acetate] + ClCBr
[2]
Details	mass density [kg/m3]
288.15 K	906.71
298.15 K	894.97
308.15 K	881.87

CCOC(C)=O [ethyl acetate] + ClCCBr
[2]
Details	mass density [kg/m3]
288.15 K	906.71
298.15 K	894.97
308.15 K	882.27

CCOC(C)=O [ethyl acetate] + ClCCCl
[2]
Details	mass density [kg/m3]
288.15 K	906.71
298.15 K	894.97
308.15 K	882.27
